A short description of this assay: Dynamic viscosity (capillary tube) after aerosol treatment. Set-up: species or system human. The settings on record: SS; for Dynamic viscosity (γ), After: before 1.748 ± 0.006. The method, then:
Six grams of soft PMP mucin was homogenised using a shredder with phosphate buffer saline (PBS) (3.0 ml) with sonification and vortexed until a homogenous mixture was formed, with incubation at 37° C. to remove air bubbles and after which viscosity was adjusted (further dilutions with PBS). The pH was adjusted to 7.0 using either 1.0 M NaOH or 0.1 N Hydrochloric acid. Dynamic viscosity (Y) of sputum was measured using the capillary tube method as outlined in […]. and G. Castellano, Determination of the kinematic viscosity by the liquid rise in a capillary tube. […] Ensino de Física, 2013. 35. A similar investigation as above was carried out to determine a comparative dynamic viscosity and pipette flow time for PMP mucin simulated sputa (SS). A similar treatment as in the experiment described above for NAC was carried out using Bromelain (125 and 250 μg/ml) in PBS (pH.7.0) along with control using PBS (pH.7.0). Both dynamic viscosity and pipette flow time was measured as outlined earlier for both artificial and PMP simulated sputa models. Using a combination of NAC (20 mg/ml) with either 125 or 250 μg/ml Bromelain in PBS (pH.7.0), a similar investigation was carried out as outlined earlier and measurements were made for both artificial and simulated sputa models. D=(TREATED)-(UNTREATED/(UNTREATED)×100.

Molecules are shown by their SMILES. Several values for one entry are separate records, joined by “and”; a condition that tells them apart may be missing. Identical values can stand only once.

With `CC(=O)N[C@@H](CS)C(=O)O` [NAC, N-acetylcysteine], for the setting “aerosol NAC 10 mg/ml”, the “D (%), decrease of dynamic viscosity (γ)” value was 16% and 16 ↓ %; the “Dynamic viscosity (γ), After” value is given as 1.467 ± 0.011 cSt. Further, for the setting “aerosol NAC 20 mg/ml”, the “D (%), decrease of dynamic viscosity (γ)” value is 17% and 17 ↓ %; the “Dynamic viscosity (γ), After” value was 1.453 ± 0.055 cSt.

Source of the values: patent US20250009856A1, “METHODS FOR TREATING RESPIRATORY DISEASES” (MUCPharm Pty Ltd, priority 2021, published 2025).
